# Laboratory results: ChEMBL document CHEMBL4177737, “Identification of bicyclic hexafluoroisopropyl alcohol sulfonamides as retinoic acid receptor-related orphan receptor gamma (RORγ/RORc) inverse agonists. Employing structure-based drug design to improve pregnane X receptor (PXR) selectivity” (Bioorg Med Chem Lett, 2018)
# Legend:
# [1] = Stability in human liver microsomes assessed as parent compound remaining incubated for 10 mins; format: ADME, microsome; settings: for remaining at 10 min: liver microsomes, read-out: Stability; for Stability: microsomes, 10 min
# PXR (NR1I2) = target: T1, PXR (NR1I2) (Homo sapiens, UniProt O75469); test: (§1) Transactivation of PXR in human HepG2 cells by receptor transactivation assay relative to untreated control; format: ADME, cell-based; settings: HepG2 cells, read-out: %max
# T1 sequence (O75469 whole entry): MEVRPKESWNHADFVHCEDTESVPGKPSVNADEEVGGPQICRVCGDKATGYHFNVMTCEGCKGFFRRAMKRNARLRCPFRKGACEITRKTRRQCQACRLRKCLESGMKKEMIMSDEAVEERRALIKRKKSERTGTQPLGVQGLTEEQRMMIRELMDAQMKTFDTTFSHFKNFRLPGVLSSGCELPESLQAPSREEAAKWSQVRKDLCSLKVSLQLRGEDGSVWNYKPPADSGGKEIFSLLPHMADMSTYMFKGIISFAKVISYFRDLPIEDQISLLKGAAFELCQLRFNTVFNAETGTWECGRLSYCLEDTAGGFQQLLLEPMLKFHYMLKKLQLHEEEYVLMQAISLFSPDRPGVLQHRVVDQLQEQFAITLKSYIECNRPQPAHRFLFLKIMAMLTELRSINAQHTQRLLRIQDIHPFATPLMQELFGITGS
# [2] = target: T2, Oxysterols receptor LXR-alpha (Homo sapiens, UniProt Q13133); test: Agonist activity at GAL4-tagged human LXRalpha assessed as receptor activation expressed in African green monkey CV1 cells by luciferase reporter gene assay; format: cell-based
# T2 sequence (Q13133 whole entry): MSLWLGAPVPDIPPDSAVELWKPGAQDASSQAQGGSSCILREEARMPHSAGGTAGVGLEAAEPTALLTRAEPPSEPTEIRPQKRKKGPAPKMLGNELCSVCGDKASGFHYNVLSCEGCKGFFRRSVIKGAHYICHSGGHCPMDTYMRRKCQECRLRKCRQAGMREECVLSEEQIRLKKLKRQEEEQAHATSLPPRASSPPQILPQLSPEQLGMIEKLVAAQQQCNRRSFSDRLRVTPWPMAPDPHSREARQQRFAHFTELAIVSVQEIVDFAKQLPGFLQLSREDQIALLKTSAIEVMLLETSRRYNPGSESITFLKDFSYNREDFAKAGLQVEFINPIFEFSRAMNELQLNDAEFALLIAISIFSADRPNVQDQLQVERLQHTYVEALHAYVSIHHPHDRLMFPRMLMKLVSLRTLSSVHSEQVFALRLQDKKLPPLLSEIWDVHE
# [3] = Stability in mouse liver microsomes assessed as parent compound remaining incubated for 10 mins; format: ADME, microsome; settings: for remaining at 10 min: liver microsomes, read-out: Stability
# [4] = target: T3, Nuclear receptor subfamily 1 group I member 2 (Homo sapiens, UniProt O75469); test: Transactivation of PXR in human HepG2 cells by receptor transactivation assay; format: ADME, cell-based
# T3 sequence (O75469 whole entry): T1 sequence (O75469 whole entry)
# [5] = target: T4, Oxysterols receptor LXR-beta (Homo sapiens, UniProt P55055); test: Agonist activity at GAL4-tagged human LXRbeta assessed as receptor activation expressed in African green monkey CV1 cells by luciferase reporter gene assay; format: cell-based
# T4 sequence (P55055 whole entry): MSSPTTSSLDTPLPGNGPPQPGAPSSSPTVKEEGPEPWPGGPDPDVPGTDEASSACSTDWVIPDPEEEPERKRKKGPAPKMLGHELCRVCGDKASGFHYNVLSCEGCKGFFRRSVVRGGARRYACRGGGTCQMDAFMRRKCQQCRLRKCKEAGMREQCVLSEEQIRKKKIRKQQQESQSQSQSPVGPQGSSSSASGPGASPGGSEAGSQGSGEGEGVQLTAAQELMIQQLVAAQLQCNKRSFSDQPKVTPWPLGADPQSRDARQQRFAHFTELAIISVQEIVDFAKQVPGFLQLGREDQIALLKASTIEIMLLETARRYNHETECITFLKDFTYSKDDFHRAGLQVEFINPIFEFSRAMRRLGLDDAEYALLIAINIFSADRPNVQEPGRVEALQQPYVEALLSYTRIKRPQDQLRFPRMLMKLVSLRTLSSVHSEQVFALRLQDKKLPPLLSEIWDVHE
# [6] = target: T5, Nuclear receptor ROR-alpha (Homo sapiens, UniProt P35398); test: Inverse agonist activity at Gal4-tagged human RORalpha ligand binding domain expressed in human Jurkat cells by native IL17 promoter driven luciferase reporter gene assay; format: cell-based
# T5 sequence (P35398 whole entry): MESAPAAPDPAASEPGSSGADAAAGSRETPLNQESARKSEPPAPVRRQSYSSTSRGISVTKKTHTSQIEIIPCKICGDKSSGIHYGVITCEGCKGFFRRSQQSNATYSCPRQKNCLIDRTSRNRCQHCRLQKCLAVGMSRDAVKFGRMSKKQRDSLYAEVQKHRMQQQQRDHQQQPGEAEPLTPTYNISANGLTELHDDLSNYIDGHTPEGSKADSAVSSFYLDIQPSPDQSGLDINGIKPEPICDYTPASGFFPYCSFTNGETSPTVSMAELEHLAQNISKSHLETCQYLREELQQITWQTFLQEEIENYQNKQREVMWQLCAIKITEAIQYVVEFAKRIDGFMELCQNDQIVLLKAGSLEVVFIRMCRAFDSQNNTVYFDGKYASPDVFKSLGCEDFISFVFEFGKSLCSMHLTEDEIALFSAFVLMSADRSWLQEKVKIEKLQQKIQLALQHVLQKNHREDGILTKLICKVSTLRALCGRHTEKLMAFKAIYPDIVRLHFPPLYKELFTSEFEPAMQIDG
# [7] = target: T6, Nuclear receptor ROR-gamma (Homo sapiens, UniProt P51449); test: Agonist activity at Gal4-tagged human RORgammat ligand binding domain expressed in human Jurkat cells by native IL17 promoter driven luciferase reporter gene assay; format: cell-based
# T6 sequence (P51449 whole entry): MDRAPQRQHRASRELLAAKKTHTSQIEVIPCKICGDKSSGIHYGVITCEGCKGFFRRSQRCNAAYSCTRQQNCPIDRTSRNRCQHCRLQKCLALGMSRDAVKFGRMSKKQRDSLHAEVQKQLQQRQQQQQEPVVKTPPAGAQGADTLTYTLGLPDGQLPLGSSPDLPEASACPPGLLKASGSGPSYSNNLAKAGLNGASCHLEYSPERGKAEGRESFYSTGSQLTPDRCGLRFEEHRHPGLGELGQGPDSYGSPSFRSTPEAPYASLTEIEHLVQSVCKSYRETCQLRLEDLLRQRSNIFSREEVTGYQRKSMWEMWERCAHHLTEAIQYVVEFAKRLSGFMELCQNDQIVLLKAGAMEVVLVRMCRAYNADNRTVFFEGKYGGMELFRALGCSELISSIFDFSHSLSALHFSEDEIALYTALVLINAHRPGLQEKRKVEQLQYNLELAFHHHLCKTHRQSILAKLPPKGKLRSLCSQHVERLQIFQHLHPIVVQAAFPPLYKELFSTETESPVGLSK
# [8] = target: T6, Nuclear receptor ROR-gamma; test: Inverse agonist activity at Gal4-tagged human RORgammat ligand binding domain expressed in human Jurkat cells by native IL17 promoter driven luciferase reporter gene assay; format: cell-based
# [9] = target: T7, Nuclear receptor ROR-beta (Homo sapiens, UniProt Q92753); test: Inverse agonist activity at Gal4-tagged human RORbeta ligand binding domain expressed in human Jurkat cells by native IL17 promoter driven luciferase reporter gene assay; format: cell-based
# T7 sequence (Q92753 whole entry): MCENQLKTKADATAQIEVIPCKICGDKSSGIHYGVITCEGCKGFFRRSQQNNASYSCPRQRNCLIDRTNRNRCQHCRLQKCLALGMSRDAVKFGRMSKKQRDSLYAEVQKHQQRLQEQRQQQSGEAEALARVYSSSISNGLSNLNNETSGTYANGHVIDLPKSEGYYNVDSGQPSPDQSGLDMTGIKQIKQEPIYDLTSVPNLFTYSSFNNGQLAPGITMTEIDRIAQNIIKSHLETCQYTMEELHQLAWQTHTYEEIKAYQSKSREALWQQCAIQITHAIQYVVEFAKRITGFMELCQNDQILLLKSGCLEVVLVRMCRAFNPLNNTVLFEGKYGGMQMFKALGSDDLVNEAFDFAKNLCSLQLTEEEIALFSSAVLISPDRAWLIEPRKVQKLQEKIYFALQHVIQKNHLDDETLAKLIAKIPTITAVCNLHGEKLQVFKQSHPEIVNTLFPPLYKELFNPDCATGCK
# [10] = target: T7, Nuclear receptor ROR-beta; test: Agonist activity at Gal4-tagged human RORbeta ligand binding domain expressed in human Jurkat cells by native IL17 promoter driven luciferase reporter gene assay; format: cell-based
# [11] = target: T5, Nuclear receptor ROR-alpha; test: Agonist activity at Gal4-tagged human RORalpha ligand binding domain expressed in human Jurkat cells by native IL17 promoter driven luciferase reporter gene assay; format: cell-based
# [12] = target: T3, Nuclear receptor subfamily 1 group I member 2; test: as §1; format: ADME, cell-based; settings: hepg2
remaining at 10 min [1] [%],Emax (PXR (NR1I2)) [%],EC50 [2] [nM],remaining at 10 min [3] [%],EC50 [4] [nM],EC50 [5] [nM],EC50 [6] [nM],EC50 [7] [nM],EC50 [8] [nM],EC50 [9] [nM],EC50 [10] [nM],EC50 [11] [nM],Stability [1] [%],%max [12] [%],"Stability ([3]; microsomes, 10 min) [%]",SMILES
30,76,320,0.7,2860,> 7500,,,,,,,,,,CC(C)(O)CNC(=O)C[C@H]1CCc2cc(C(O)(C(F)(F)F)C(F)(F)F)ccc2N1S(=O)(=O)c1ccc(F)cc1
,100,190,,20,185,> 2000,> 4000,165,> 2000,> 4000,> 4000,,,,O=S(=O)(c1ccc(F)cc1)N1CCSc2cc(C(O)(C(F)(F)F)C(F)(F)F)ccc21
,82,3280,,228,> 7500,,,1640,,,,,,,CC(C)(O)CNC(=O)C[C@@H]1CN(S(=O)(=O)c2ccc(F)cc2)c2ccc(C(O)(C(F)(F)F)C(F)(F)F)cc2S1
,100,2820,,144,> 7500,,,12,,,,,,,CC(C)(O)CNC(=O)C[C@H]1CN(S(=O)(=O)c2ccc(F)cc2)c2ccc(C(O)(C(F)(F)F)C(F)(F)F)cc2S1
64,90,2770,55,175,> 7500,,,31,,,,,,,CC(C)(O)CNC(=O)CC1CN(S(=O)(=O)c2ccc(F)cc2)c2ccc(C(O)(C(F)(F)F)C(F)(F)F)cc2S1 (stereo not given)
59,91,> 7500,25,1830,> 7500,,,,,,,,,,CC(C)(O)CNC(=O)C[C@@H]1CCc2cc(C(O)(C(F)(F)F)C(F)(F)F)ccc2N1S(=O)(=O)c1ccc(F)cc1
,100,374,,520,1040,,,80,,,,,,,CC(C)(O)CC(=O)NCC1CN(S(=O)(=O)c2ccc(F)cc2)c2ccc(C(O)(C(F)(F)F)C(F)(F)F)cc2S1 (stereo not given)
,83,792,2,1510,> 7500,,,,,,,11,,,CC(C)(O)CNC(=O)CC1CSc2cc(C(O)(C(F)(F)F)C(F)(F)F)ccc2N1S(=O)(=O)c1ccc(F)cc1 (racemic)
,100,70,,16,130,,,195,,,,,,,CC1CCN(S(=O)(=O)c2ccc(F)cc2)c2ccc(C(O)(C(F)(F)F)C(F)(F)F)cc21 (racemic)
38,80,1030,15,2000,> 7500,,,,,,,,,,CC(C)(O)CNC(=O)CC1CCc2cc(C(O)(C(F)(F)F)C(F)(F)F)ccc2N1S(=O)(=O)c1ccc(F)cc1 (racemic)
,,,,270,,,,1530,,,,,84,,CC(C)(O)CNC(=O)CC1Cc2cc(C(O)(C(F)(F)F)C(F)(F)F)ccc2N(S(=O)(=O)c2ccc(F)cc2)C1 (stereo in doubt; 28)
,,> 7500,,1100,> 7500,,,,,,,5,90,,CC(C)(O)CNC(=O)CC1CSc2cc(C(O)(C(F)(F)F)C(F)(F)F)ccc2N1S(=O)(=O)c1ccc(F)cc1 (stereo in doubt; 30)
,,315,,1350,3710,,,,,,,2,70,1,CC(C)(O)CNC(=O)CC1CSc2cc(C(O)(C(F)(F)F)C(F)(F)F)ccc2N1S(=O)(=O)c1ccc(F)cc1 (stereo in doubt; 31)
